Data: patent US7244758B2, “N-type calcium channel blockers” (Neuromed Pharmaceuticals Ltd., priority 2003, dated 2007)
pIC50: −log10 of the molar value. Like-named read-outs stand apart in the source and are kept apart here.

Legend:
[1] = molecular target: T1, rat brain N-type calcium channel subunits (α1B+α2δ+β1b) (Rattus norvegicus, UniProt Q02294); test: N-type calcium channel block, whole cell patch clamp in HEK 293 cells; type: cell-based; conditions: holding −80 mV to +10 mV, 5 mM Ba
T1 construct: expressed in transfected cells; host or cells: HEK 293
Procedure: Antagonist activity was measured using whole cell patch recordings on human embryonic kidney cells either stably or transiently expressing rat α1B+α2δ+β1b channels (N-type channels) with 5 mM barium as a charge carrier. P/Q-type channels (α1A+α2δ+β1b cDNA subunits) and L-type channels (α1C+α2δ+β1b cDNA subunits) were also transiently expressed in HEK 293 cells.
For transient expression, host cells, such as human embryonic kidney cells, HEK 293 (ATCC# CRL 1573) were grown in standard DMEM medium supplemented with 2 mM glutamine and 10% fetal bovine serum. HEK 293 cells were transfected by a standard calcium-phosphate-DNA coprecipitation method using the rat α1B+β1b+α2δ N-type calcium channel subunits in a vertebrate expression vector (for example, see Current Protocols in Molecular Biology).
After an incubation period of from 24 to 72 hrs the culture medium was removed and replaced with external recording solution (see below). Whole cell patch clamp experiments were performed using an Axopatch 200B amplifier (Axon Instruments, Burlingame, Calif.) linked to an IBM compatible personal computer equipped with pCLAMP software. Borosilicate glass patch pipettes (Sutter Instrument Co., Novato, Calif.) were polished (Microforge, Narishige, Japan) to a resistance of about 4 MΩ when filled with cesium methanesulfonate internal solution (composition in MM: 109 CsCH3 SO4, 4 MgCl2, 9 EGTA, 9 HEPES, pH 7.2). Cells were bathed in 5 mM Ba^++ (in mM: 5 BaCl2, 1 MgCl2, 10 HEPES, 40 tetraethylammonium chloride, 10 glucose, 87.5 CsCl pH 7.2). […] Drugs were perfused directly into the vicinity of the cells using a microperfusion system.
Normalized dose-response curves were fit (Sigmaplot 4.0, SPSS Inc., Chicago, Ill.) by the Hill equation to determine IC50 values. Steady-state inactivation curves were plotted as the normalized test pulse amplitude following 5 s inactivating prepulses at +10 mV increments. Inactivation curves were fit (Sigmaplot 4.0) with the Boltzman equation, Ipeak (normalized)=1/(1+exp((V−Vh)z/25.6)), where V and Vh are the conditioning and half inactivation potentials, respectively, and z is the slope factor.
N-type calcium channel blocking activity was assayed in human embryonic kidney cells, HEK 293, stably transfected with the rat brain N-type calcium channel subunits (α1B+α2δ+β1b cDNA subunits). Alternatively, N-type calcium channels (α1B+α2δ+β1b cDNA subunits), L-type channels (α1C+α2δ+β1b cDNA subunits) and P/Q-type channels (α1A+α2δ+β1b cDNA subunits) were transiently expressed in HEK 293 cells. Briefly, cells were cultured in Dulbecco's modified eagle medium (DMEM) supplemented with 10% fetal bovine serum, 200 U/ml penicillin and 0.2 mg/ml streptomycin at 37° C. with 5% CO2. At 85% confluency cells were split with 0.25% trypsin/1 mM EDTA and plated at 10% confluency on glass coverslips. At 12 hours the medium was replaced and the cells transiently transfected using a standard calcium phosphate protocol and the appropriate calcium channel cDNA's. Fresh DMEM was supplied and the cells transferred to 28° C./5% CO2. Cells were incubated for 1 to 2 days to whole cell recording.
Whole cell patch clamp experiments were performed using an Axopatch 200B amplifier (Axon Instruments, Burlingame, Calif.) linked to a personal computer equipped with pCLAMP software. The external and internal recording solutions contained, respectively, 5 mM BaCl2, […], 10 mM HEPES, 40 mM TEACl, 10 mM glucose, 87.5 mM CsCl (pH 7.2) and 108 mM CsMS, 4 mM MgCl2, 9 mM EGTA, 9 mM HEPES (pH 7.2). Currents were typically elicited from a holding potential of −80 mV to +10 mV using Clampex software (Axon Instruments).

[2] = molecular target: T2, human α1G T-type channels (Homo sapiens, UniProt O43497); test: Block of α1G T-type channels, whole-cell patch clamp in HEK cells; type: cell-based
T2 construct: expressed in transfected cells
Procedure: Standard patch-clamp techniques were employed to identify blockers of T-type currents. Briefly, previously described HEK cell lines stably expressing human α1G T-type channels were used for all the recordings (passage #: 4-20, 37° C., 5% CO2). To obtain T-type currents, plastic dishes containing semi-confluent cells were positioned on the stage of a ZEISS AXIOVERT S100 microscope after replacing the culture medium with external solution (see below). Whole-cell patches were obtained using pipettes (borosilicate glass with filament, O.D.: 1.5 mm, I.D.: 0.86 mm, 10 cm length), fabricated on a SUTTER P-97 puller with resistance values of ˜5 MΩ (see below for internal solution).
In the non-inactivating protocol, the holding potential is set at −110 mV and with a pre-pulse at −100 mV for 1 second prior to the test pulse at −40 mV for 50 ms. […]
Test compounds were dissolved in external solution, 0.1-0.01% DMSO. After ˜10 min rest, they were applied by gravity close to the cell using a WPI microfil tubing. The “non-inactivated” pre-pulse was used to examine the resting block of a compound. The “inactivated” protocol was employed to study voltage-dependent block. However, the initial data shown below were mainly obtained using the non-inactivated protocol only. IC50 values are shown for various compounds of the invention in Table 6.

[3] = low frequency stimulation 0.067 Hz (tonic block), read-out: IC50 at 0.067 Hz
[4] = non-inactivating protocol, pre-pulse −100 mV (resting block), read-out: IC50 at −100 mV
[5] = pulse frequency 0.2 Hz (frequency dependent block), read-out: IC50 at 0.2 Hz
[6] = inactivation protocol (voltage-dependent block), read-out: IC50 at −80 mV

T2 sequence (O43497 whole entry): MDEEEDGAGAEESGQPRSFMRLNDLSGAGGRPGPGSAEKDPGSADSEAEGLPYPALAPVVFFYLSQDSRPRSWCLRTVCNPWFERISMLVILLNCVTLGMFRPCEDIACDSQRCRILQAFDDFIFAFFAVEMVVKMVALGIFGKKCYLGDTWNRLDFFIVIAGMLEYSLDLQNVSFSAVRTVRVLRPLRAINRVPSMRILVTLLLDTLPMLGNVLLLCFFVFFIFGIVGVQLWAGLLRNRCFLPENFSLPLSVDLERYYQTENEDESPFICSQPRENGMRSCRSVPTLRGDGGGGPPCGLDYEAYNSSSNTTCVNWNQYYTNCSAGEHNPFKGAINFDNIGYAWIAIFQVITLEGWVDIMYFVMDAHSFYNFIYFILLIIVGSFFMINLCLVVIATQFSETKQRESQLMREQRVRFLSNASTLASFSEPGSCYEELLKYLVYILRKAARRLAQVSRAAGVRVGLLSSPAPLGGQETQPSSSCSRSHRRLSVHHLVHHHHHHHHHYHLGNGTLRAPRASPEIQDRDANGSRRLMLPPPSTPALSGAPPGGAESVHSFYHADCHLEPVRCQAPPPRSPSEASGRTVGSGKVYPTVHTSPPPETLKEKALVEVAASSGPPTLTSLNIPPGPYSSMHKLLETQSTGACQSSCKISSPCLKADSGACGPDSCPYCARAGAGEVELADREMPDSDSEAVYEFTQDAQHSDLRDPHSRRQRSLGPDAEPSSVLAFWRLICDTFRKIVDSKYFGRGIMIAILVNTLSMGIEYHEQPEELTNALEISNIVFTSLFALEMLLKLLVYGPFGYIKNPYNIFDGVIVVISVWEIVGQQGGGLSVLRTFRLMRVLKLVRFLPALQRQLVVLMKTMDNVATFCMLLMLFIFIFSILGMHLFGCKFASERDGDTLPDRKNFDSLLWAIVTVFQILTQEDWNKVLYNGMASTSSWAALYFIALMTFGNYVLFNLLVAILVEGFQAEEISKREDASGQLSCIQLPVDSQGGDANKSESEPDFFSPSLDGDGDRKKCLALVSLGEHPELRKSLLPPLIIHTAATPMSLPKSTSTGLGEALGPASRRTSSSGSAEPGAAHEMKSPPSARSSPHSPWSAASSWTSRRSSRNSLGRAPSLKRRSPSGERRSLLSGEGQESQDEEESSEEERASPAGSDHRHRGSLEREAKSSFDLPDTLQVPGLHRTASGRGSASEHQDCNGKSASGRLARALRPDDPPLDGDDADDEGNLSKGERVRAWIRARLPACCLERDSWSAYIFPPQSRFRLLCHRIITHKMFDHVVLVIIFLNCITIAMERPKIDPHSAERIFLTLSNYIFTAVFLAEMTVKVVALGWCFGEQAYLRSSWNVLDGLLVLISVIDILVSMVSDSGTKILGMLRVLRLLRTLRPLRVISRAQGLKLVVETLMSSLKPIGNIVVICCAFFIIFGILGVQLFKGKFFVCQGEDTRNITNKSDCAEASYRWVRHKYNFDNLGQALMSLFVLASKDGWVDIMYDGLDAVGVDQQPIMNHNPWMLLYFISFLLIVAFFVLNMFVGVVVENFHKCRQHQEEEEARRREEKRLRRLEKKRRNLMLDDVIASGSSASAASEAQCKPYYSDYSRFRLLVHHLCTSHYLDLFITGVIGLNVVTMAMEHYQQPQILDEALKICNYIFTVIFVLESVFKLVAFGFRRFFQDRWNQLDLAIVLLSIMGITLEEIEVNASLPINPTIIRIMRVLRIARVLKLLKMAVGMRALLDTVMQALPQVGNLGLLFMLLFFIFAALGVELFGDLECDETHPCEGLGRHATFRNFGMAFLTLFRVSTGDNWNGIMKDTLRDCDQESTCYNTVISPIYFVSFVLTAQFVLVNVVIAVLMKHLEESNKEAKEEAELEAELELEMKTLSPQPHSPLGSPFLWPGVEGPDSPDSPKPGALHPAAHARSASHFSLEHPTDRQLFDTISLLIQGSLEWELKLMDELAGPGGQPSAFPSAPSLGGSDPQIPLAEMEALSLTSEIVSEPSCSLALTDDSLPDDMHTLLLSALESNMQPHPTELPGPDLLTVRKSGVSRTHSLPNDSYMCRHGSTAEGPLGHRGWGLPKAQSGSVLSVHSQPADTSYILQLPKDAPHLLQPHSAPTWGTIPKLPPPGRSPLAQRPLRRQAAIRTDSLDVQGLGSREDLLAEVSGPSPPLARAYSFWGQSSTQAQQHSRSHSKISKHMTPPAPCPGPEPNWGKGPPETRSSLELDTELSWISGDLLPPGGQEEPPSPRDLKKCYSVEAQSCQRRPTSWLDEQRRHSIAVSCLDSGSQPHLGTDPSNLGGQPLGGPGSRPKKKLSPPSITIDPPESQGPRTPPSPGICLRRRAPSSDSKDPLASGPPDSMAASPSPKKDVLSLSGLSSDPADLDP
T1 sequence (Q02294 whole entry): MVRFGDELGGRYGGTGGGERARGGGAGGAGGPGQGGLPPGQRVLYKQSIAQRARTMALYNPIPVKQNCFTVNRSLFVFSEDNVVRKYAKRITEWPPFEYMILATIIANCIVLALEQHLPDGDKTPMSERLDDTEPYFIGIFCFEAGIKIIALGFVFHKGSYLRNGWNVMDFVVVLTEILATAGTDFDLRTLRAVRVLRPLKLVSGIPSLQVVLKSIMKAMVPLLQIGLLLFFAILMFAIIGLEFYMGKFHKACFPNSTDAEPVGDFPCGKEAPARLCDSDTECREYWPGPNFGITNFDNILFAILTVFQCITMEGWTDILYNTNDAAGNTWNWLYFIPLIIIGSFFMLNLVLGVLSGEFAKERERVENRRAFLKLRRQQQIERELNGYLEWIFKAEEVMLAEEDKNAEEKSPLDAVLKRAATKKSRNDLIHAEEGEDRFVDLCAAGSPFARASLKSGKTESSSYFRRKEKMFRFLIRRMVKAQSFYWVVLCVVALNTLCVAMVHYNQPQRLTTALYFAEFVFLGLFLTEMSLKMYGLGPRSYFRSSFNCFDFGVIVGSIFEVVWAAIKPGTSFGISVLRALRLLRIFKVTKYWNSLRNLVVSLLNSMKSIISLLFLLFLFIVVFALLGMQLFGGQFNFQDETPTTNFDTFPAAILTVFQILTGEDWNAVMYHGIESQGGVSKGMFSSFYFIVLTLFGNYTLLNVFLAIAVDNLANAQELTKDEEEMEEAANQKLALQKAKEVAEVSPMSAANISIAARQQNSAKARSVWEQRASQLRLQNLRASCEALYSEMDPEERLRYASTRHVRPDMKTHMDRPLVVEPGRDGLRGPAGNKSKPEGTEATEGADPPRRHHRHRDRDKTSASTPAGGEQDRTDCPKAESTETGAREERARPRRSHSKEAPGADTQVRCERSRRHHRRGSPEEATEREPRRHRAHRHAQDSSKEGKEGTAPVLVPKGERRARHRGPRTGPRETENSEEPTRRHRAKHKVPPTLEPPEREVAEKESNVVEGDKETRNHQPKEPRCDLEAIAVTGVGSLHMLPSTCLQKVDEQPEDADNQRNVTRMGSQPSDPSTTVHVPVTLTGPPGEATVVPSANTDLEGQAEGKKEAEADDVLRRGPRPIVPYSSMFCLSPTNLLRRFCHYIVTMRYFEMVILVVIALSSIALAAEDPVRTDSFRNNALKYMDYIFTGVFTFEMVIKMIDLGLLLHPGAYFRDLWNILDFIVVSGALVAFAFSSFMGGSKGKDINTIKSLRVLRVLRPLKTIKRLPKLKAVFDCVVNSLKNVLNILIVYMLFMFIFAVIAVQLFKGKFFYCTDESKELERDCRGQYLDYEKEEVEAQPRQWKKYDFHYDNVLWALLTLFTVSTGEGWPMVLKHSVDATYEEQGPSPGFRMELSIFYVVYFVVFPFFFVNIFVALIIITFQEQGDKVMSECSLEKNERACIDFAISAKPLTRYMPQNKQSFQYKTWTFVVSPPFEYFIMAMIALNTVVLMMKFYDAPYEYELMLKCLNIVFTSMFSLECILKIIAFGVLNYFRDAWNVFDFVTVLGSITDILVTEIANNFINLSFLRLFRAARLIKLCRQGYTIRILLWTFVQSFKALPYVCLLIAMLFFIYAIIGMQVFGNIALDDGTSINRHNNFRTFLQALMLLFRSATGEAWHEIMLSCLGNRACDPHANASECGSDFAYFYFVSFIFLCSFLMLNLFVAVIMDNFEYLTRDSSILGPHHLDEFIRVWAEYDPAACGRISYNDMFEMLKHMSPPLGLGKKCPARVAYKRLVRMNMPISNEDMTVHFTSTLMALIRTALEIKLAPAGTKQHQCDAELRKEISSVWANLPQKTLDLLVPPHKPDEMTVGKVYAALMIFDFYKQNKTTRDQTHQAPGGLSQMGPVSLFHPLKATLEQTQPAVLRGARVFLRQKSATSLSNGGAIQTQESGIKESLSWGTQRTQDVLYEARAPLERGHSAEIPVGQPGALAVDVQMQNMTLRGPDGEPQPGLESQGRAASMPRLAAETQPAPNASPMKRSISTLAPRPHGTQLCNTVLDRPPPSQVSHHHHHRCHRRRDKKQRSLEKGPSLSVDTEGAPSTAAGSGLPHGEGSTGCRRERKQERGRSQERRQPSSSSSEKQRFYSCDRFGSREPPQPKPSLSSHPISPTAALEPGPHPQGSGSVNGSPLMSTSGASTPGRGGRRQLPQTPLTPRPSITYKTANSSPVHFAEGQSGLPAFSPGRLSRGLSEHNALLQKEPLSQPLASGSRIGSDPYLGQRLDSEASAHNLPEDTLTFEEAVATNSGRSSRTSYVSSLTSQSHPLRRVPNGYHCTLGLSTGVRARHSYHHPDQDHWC

SMILES	pIC50 [1, 3]	pIC50 [2, 4]	pIC50 [1, 5]	pIC50 [2, 6]	IC50 at −100 mV ([2]; non-inactivating protocol, pre-pulse −100 mV (resting block))
COc1cc(C(=O)NCC2CCN(C(=O)CCCCC(c3ccc(F)cc3)c3ccc(F)cc3)C2)cc(OC)c1OC (stereo not drawn) [Compound P3]	6.38	7.07	–	–	–
COc1c(C(C)(C)C)cc(C(=O)N2CCC(CNC(=O)CCCCC(c3ccc(F)cc3)c3ccc(F)cc3)C2)cc1C(C)(C)C (stereo not drawn) [Compound P11]	8.00	7.57	–	–	–
CN(C(=O)CN(CC(=O)N(C)c1ccccc1)CC1CCN(C(c2ccccc2)c2ccccc2)C1)c1ccccc1 (stereo not drawn) [Compound P60]	7.24	6.21	7.35	6.64	–
CC(C)(C)c1cc(C(=O)NCC2CCN(C(=O)CCCCC(c3ccc(F)cc3)c3ccc(F)cc3)C2)cc(C(C)(C)C)c1 (stereo not drawn) [Compound P44]	6.58	7.28	6.92	7.54	–
O=C(COc1ccc(F)cc1F)NCC1CCN(C(=O)CCCCC(c2ccc(F)cc2)c2ccc(F)cc2)C1 (stereo not drawn) [Compound P31]	6.25	6.34	6.66	6.71	–
COc1c(C(C)(C)C)cc(C(=O)NCC2CCN(CCCCCC(c3ccc(F)cc3)c3ccc(F)cc3)C2)cc1C(C)(C)C (stereo not drawn) [Compound P19]	–	7.15	–	–	–
O=C(CN(c1ccccc1)c1ccccc1)NCC1CCN(C(c2ccccc2)c2ccccc2)C1 (stereo not drawn) [Compound P45]	6.29	6.39	6.61	7.17	–
O=C(CC(c1ccccc1)c1ccccc1)NCC1CCN(C(c2ccccc2)c2ccc(Cl)cc2)C1 (stereo not drawn) [Compound P26]	6.58	6.86	6.63	7.38	–
CN(Cc1cc(C(F)(F)F)cc(C(F)(F)F)c1)CC1CCN(C(=O)CCCCC(c2ccc(F)cc2)c2ccc(F)cc2)C1 (stereo not drawn) [Compound P57]	6.65	6.94	7.09	7.55	–
COc1c(C(C)(C)C)cc(C(=O)NCC2CCN(C(=O)CCCCC(c3ccc(F)cc3)c3ccc(F)cc3)C2)cc1C(C)(C)C (stereo not drawn) [Compound P42]	–	7.03	–	7.23	–
COc1cc(C(=O)N2CCC(CNC(=O)CCCCC(c3ccc(F)cc3)c3ccc(F)cc3)C2)cc(OC)c1OC (stereo not drawn) [Compound P5]	7.23	–	–	–	No effect
COc1cc(CN(C)CC2CCN(C(=O)CCCCC(c3ccc(F)cc3)c3ccc(F)cc3)C2)cc(OC)c1OC (stereo not drawn) [Compound P58]	6.92	7.10	7.07	7.24	–
CN(CCN(c1ccccc1)c1ccccc1)CC1CCN(C(c2ccccc2)c2ccccc2)C1 (stereo not drawn) [Compound P55]	6.49	7.24	6.65	7.74	–
O=C(CC(c1ccccc1)c1ccccc1)NCC1CCN(C(c2ccccc2)c2ccc(C(F)(F)F)cc2)C1 (stereo not drawn) [Compound P39]	6.75	7.92	6.59	8.52	–
O=C(CC(c1ccccc1)c1ccccc1)NCC1CCN(C(c2ccccc2)c2ccccc2Cl)C1 (stereo not drawn) [Compound P37]	7.64	6.95	8.10	7.55	–
O=C(NCC1CCN(C(c2ccccc2)c2ccccc2)C1)NC(c1ccccc1)c1ccccc1 (stereo not drawn) [Compound P47]	6.53	7.62	6.73	8.10	–
O=C(CN(CC(=O)N(c1ccccc1)c1ccccc1)CC1CCN(C(c2ccccc2)c2ccccc2)C1)N(c1ccccc1)c1ccccc1 (stereo not drawn) [Compound P46]	8.15	7.64	9.00	8.30	–
Cc1cc(C)cc(NCC(=O)NCC2CCN(C(=O)CCCCC(c3ccc(F)cc3)c3ccc(F)cc3)C2)c1 (stereo not drawn) [Compound P40]	7.72	6.48	8.52	6.98	–
O=C(COc1ccc(Cl)cc1)NCC1CCN(C(=O)CCCCC(c2ccc(F)cc2)c2ccc(F)cc2)C1 (stereo not drawn) [Compound P36]	7.00	7.52	7.70	7.92	–
O=C(NCC1CCN(C(=O)CCCCC(c2ccc(F)cc2)c2ccc(F)cc2)C1)c1cc(Br)c(O)c(Br)c1 (stereo not drawn) [Compound P15]	< 6.00	< 5.00	–	–	–
O=C(CC(c1ccccc1)c1ccccc1)NCC1CCN(C(c2ccccc2)c2cccc(Cl)c2)C1 (stereo not drawn) [Compound P38]	7.10	7.03	7.62	7.68	–
O=C(NCC1CCN(C(=O)CCCCC(c2ccc(F)cc2)c2ccc(F)cc2)C1)c1cc(C(F)(F)F)cc(C(F)(F)F)c1 (stereo not drawn) [Compound P49]	6.87	7.74	7.05	8.10	–
CN(CC(=O)N(c1ccccc1)c1ccccc1)CC1CCN(C(c2ccccc2)c2ccccc2)C1 (stereo not drawn) [Compound P54]	6.55	6.82	6.62	7.26	–
c1ccc(C(c2ccccc2)N2CCC(CN(CCN(c3ccccc3)c3ccccc3)CCN(c3ccccc3)c3ccccc3)C2)cc1 (stereo not drawn) [Compound P59]	5.10	4.40	5.70	5.22	–
O=C(CC(c1ccccc1)c1ccccc1)N1CCC(CNC(c2ccccc2)c2ccccc2)C1 (stereo not drawn) [Compound P2]	5.97	6.49	6.08	7.28	–
